Measured values taken from ChEMBL document CHEMBL5728935, “Heterocycles useful as anti-cancer agents” (2022).

Assays:
CDK4/Cyclin D3 = CDK4/Cyclin D3 (Homo sapiens, UniProt P11802+P30281); assay: (§1) Kinase Assay: In vitro enzymatic activity of the CDK isoforms CDK2/CycA2, CDK4/CycD3 and CDK6/cycD3 were measured using Mobility Shift Assay that monitors phosphorylation ratio of FAM labelled peptide (Peptide 18 for CDK2/CycA2, Peptide 8 for CDK4/CycD3 and CDK6/cycD3). CDK2/CycA2 and CDK6/cycD3 were assayed under buffer conditions in the presence of 50 mM HEPES (pH 7.5), 10 mM MgCl2, 0.0015% Brij-35, and 2 mM dithiothreitol, CDK4/CycD3 with buffer condition of 20 mM HEPES (pH 7.5), 10 mM MgCl2, 0.01% Triton X-100, and 2 mM dithiothreitol. Prepare compounds to 50× of the final desired highest inhibitor concentration by 100% DMSO and serial dilution in 3-fold for total of 10 concentrations. […] After assay for 60 min, 180 min, 60 min respectively at 28° C., reactions were terminated with stop solution (50 mM EDTA, 0.015% Brij-35, 0.2% Coating Reagent #3 and 100 mM HEPES (pH 7.5)). Collect conversion on Caliper EZ Reader.; assay type: protein-complex assay
Sequence of CDK4/Cyclin D3 (P11802 whole entry, canonical isoform): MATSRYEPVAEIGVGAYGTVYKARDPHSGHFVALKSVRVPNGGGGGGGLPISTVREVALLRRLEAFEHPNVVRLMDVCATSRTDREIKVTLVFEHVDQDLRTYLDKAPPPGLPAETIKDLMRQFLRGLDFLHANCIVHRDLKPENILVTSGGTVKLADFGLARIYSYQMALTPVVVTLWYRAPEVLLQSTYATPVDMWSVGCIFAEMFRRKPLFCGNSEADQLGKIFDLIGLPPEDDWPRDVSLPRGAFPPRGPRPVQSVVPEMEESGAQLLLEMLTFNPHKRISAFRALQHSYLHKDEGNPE
Sequence of CDK4/Cyclin D3 (P30281 whole entry, canonical isoform): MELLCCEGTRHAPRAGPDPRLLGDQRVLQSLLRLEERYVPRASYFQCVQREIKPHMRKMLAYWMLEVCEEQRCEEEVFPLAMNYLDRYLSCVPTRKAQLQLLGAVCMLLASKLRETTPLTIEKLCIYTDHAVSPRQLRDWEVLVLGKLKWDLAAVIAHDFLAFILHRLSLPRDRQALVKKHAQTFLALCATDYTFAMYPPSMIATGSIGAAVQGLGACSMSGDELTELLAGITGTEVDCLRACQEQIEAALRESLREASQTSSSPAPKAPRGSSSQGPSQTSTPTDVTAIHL

CDK2/Cyclin A2 = CDK2/Cyclin A2 (Homo sapiens, UniProt P24941); assay: as §1; assay type: protein-complex assay

SMILES	IC50 (CDK4/Cyclin D3) [nM]	IC50 (CDK2/Cyclin A2) [nM]
CC(=O)c1c(C)c2cnc(Nc3ccc(N4CC5CNCC(C4)C5(F)F)cn3)nc2n(C2CCCC2)c1=O	< 100	–
CC(=O)c1c(C)c2cnc(Nc3ccc4c(c3)OC[C@@H]3CNCCN43)nc2n(C2CCCC2)c1=O	–	< 10
CC(=O)c1c(C)c2cnc(Nc3ccc4c(c3)OC[C@H]3CNCCN43)nc2n(C2CCCC2)c1=O	–	< 10
